# Results published in ChEMBL document CHEMBL6134883, “Novel Piperidinylpyridinylcarbonitrile Derivatives as QPCT and QPCTL Inhibitors for Treating Cancer” (ACS Med Chem Lett, 2025).
# Assay: Inhibition of N-terminal His/DDK-tagged recombinant human QPCTL extracted from HEK293T cells using QLLFNKTKSVEFTFC as substrate preincubated for 10 mins followed by substrate addition measured after 40 mins by MALDI-TOF MS analysis
# Format: cell-free
row,IC50,SMILES
1,1 nM,Cn1cnnc1C1(F)CCN(c2c(C#N)cc(C(C)(C)O)nc2-c2cnc3nn(C(C)(C)C)c(Cl)c3c2)CC1
2,1 nM,Cc1ccccc1-c1ccc2c(-c3nccc(C#N)c3N3CCC(F)(c4nncn4C)CC3)cnn2n1
3,1 nM,Cn1cnnc1C1(F)CCN(c2c(C#N)ccnc2-c2cnn3nc(-c4cccc(Cl)c4)ccc23)CC1
4,1 nM,Cn1cnnc1C1(F)CCN(c2c(C#N)cc(C(F)(F)F)nc2-c2cnc3nc(C(C)(C)C)oc3c2)CC1
5,1 nM,Cc1ccc(-c2ccc3c(-c4nccc(C#N)c4N4CCC(F)(c5nncn5C)CC4)cnn3n2)c(C)c1
6,1 nM,Cn1cnnc1C1(F)CCN(c2c(C#N)cc(C3CC3(F)F)nc2-c2cnc3nn(C(C)(C)C)cc3c2)CC1 (stereo unspecified)
